The values below come from US10551393B1, “High-throughput, in vivo screening platform for modulators of Apolipoprotein B” (THE JOHNS HOPKINS UNIVERSITY, priority 2016, dated 2020).

Entries after “also recorded” stand apart in the source; their conditions may differ.

In one data set the test system is ApoB. The note with it: cited from earlier work.
In data set [1] the test system is firefly luciferase internal control reporter. The data set is described as follows: Firefly luciferase internal control (counter-screen) of the dual luciferase assay. The settings on record: preliminary screen; cutoff SSMD ±2.4. Type of data set: in vivo. From the text: The primary screen seeks to identify compounds that lower ApoB levels, which is likely to identify numerous false positives that are cytotoxic or inhibit fundamental cellular processes such as transcription or translation. The inclusion of a counter-screen helps identify compounds that have strong effects on the target phenotype without causing major disruptions in other cellular processes. The pd75 zebrafish line carries a ubiquitous promoter driving firefly luciferase as well as the mCherry fluorescent reporter, which can be used to detect developmental delay or cytotoxicity in any organ. […]
The Nano-Glo® dual luciferase assay provides the means to independently measure firefly and NanoLuc® luciferase in a single reaction enabling parallel measurement of the primary screen reaction and counter-screen reaction in a high-throughput compatible add-and-read format. Consistent measurement of luciferase activity requires homogenous sample inputs, so we have developed homogenization methods using a microplate sonicator that exceeds the throughput capacity of the plate reader.
The NanoLuc® luciferase reporter uses a different substrate than firefly luciferase, allowing a second luciferase reporter to be measured in parallel as an internal control. […]

Data set [2] has as its system ApoB-containing lipoprotein particles. The experiment in a line: In-gel luciferase assay for lipoprotein size distribution. Type of data set: in vivo, zebrafish. The note with it: for lipoprotein particle size distribution: larval zebrafish homogenate, polyacrylamide gel, in-gel luciferase. As for the experimental part: To evaluate whether introduction of the luciferase tag disrupted protein function, individual larvae carrying the reporter construct were homogenized and lipoprotein classes were separated on a 3% PAGE gel (see Singh et al. Lipids in Health and Disease 7:47, 2008). An in-gel luciferase assay was then performed to detect the NanoLuc® luciferase reporter present in the gel (FIG. 2A), and compared to the results obtained from adult zebrafish serum that was stained using lipophilic fluorescent dye (FIG. 2B). Encouragingly, essentially all of the signal was present in the expected VLDL, IDL, and LDL portions of the gel, which is consistent with the primary role of ApoB as an obligate structural component of lipid-rich lipoproteins. Additionally, this method has sufficient sensitivity and resolution to detect LDL subclasses, which are seen as deviations from the normal distribution in the plot profile. […] Additionally, signal from the ApoB-luciferase fusion is responsive to known chemical and physiological modulators of ApoB (MTP inhibition and fasting).
The in-gel luciferase assay developed in our lab provides the opportunity to rapidly and sensitively detect changes in lipoprotein size distribution using individual larval zebrafish. Following a week of high-fat diet with or without treatment of test compound, larval zebrafish are homogenized and lipoproteins are separated on a 3% native PAGE gel and imaged using the in-gel luciferase reporter. This enables rapid assessment of lead compounds on effects of the potentially clinically important lipoprotein size distribution phenotype. […]
In addition to its utility as a high-throughput compatible readout for measuring levels of Apolipoprotein B, the described ApoB-NanoLuc® luciferase reporter can also be used to measure the size distribution and localization of ApoB-containing particles in zebrafish larvae. Lipoproteins separated using polyacrylamide gel electrophoresis can be sensitively detected in individual larval homogenates by immersing the gel in the NanoLuc® luciferase substrate. […]

For data set [3], the system named is ApoB-NanoLuc® luciferase reporter. The data set is described as follows: ApoB-NanoLuc luciferase reporter assay in transgenic zebrafish larvae (primary screen). Type of data set: in vivo. How it is done:
Of the two existing inhibitors of ApoB, lomitapide is the most appropriate for use as a proof of principle because it is a small molecule. Conversely, mipomersen is an injectable antisense biologic that is not suitable for comparison to small-molecule inhibitors and cannot be used a high-throughput manner. Larval zebrafish were treated with serial dilutions of the lomitapide for 36 hours from 2.5 to 4 dpf.
There are detailed protocols for the development and execution of a high-throughput screen using live vertebrate zebrafish (26, 27). The high-throughput screen uses transgenic zebrafish that carry both an engineered luciferase reporter (NanoLuc® luciferase) fused to ApoB which serves as the primary readout, and a second ubiquitously expressed firefly luciferase reporter that is used as an internal control. Transgenic larvae are raised to 3 days post-fertilization (dpf) and automatically sorted and dispensed into 96-well plates containing various dilutions of test compound. Following 48-hour incubation with test and control compounds, the zebrafish are homogenized and assayed sequentially for Firefly and NanoLuc® luciferase signal using the automated robotics platform and plate reader. Hit-calling software is used to select putative hits, which are validated through repetition and orthogonal screening. The first iteration of the screen uses a modest-sized library (3,000 compounds), and empirical determination of the optimal sample size and number of titration points required for screening enables an increase in throughput for the following iteration of the screen, which screens a 30,000 compound library.
Statistical resampling of positive control treatments can be used to estimate the appropriate sample size for HTS assays given type I and type II error rate thresholds and a desired cutoff for effect size (27). Assuming a type II error rate of 0.01 and setting the hit selection cutoff to 50% the magnitude of positive control treatment generates a log-linear relationship between sample size and type I error rate. […] Besides serving as a metric for assay quality, the SSMD score can also be used to determine hit cutoff criteria. This statistical test compares the averages between the negative control and each experimental sample, and then adjusts this difference based on the median absolute deviation (MAD) of each sample, such that samples with high variability are penalized and produce a poor SSMD score even if there is a large difference between the means. In positive control treatments, lomitapide produced an SSMD score of −4.5, reflecting a very strong control assay. The scaling factor formula can be used to determine the SSMD cutoff based on the desired magnitude relative to the positive control. A compound with a 50% effect size relative to MTP was chosen as a physiologically relevant effect size, which would produce an SSMD score of −2.7.
Day 1: Embryo production and collection—zebrafish homozygous for the ApoB-NanoLuc® luciferase and ubi:Fluc reporters are induced to spawn using custom mass-breeding chambers. Eggs are collected hourly from 9 AM to 2 PM. Embryos are maintained in petri dishes at a density of 5 fish/mL of embryo medium (E3). Day 2: Raising embryos—Embryos are maintained in E3 (1 dpf). Day 3: Raising embryos and preparing drug plates—Embryos are maintained in embryo medium (2 dpf). […]
For orientation: Reporter assays use an easily measured gene product as a stand-in for the process of interest.

Take `O=C(NC1CCN(CCCCC2(C(=O)NCC(F)(F)F)c3ccccc3-c3ccccc32)CC1)c1ccccc1-c1ccc(C(F)(F)F)cc1` [lomitapide]: in the data set with ApoB, the “ApoB levels in humans” value is listed as “significant reduction”. In addition, in data set [1], the “effect on internal control reporter (firefly luciferase)” value is given as “without affecting the internal control reporter”. Further, the ApoB levels entry in data set [2] (acute treatment, larval zebrafish, 3% native PAGE) was “significant reduction”. In addition, the “lipoprotein particle size distribution” value was “unable to create large lipoprotein particles; also recorded: particle size and number are greatly reduced; also recorded: did not have large lipoprotein particles” in data set [2]; “induced the formation of very small lipoprotein particles” in data set [2] (listed as Lomitapide). Also, in data set [3] (larval zebrafish, serial dilutions, 36 hours from 2.5 to 4 dpf), the “reporter activity relative to vehicle-treated controls” value was “dose-dependent reduction”. The “SSMD score (ApoB-NanoLuc)” value in data set [3] (positive control treatments, hit cutoff −2.7) is listed as −4.5. Moreover, the NanoLuc luciferase levels result in data set [3] (preliminary screen, dose-response, hit selection cutoff −2.7) is recorded as “dose-dependent decrease”. Besides, the “change in ApoB (ApoB-NanoLuc)” value in data set [3] (preliminary validation screen of lipid/lipoprotein metabolism compounds) is reported as “significant change in ApoB”. In data set [3] (transgenic larvae), the “ApoB-NanoLuc luciferase levels in transgenic larvae” value was “significantly lowered”.
